Legend:
[1] = target: Voltage-gated inwardly rectifying potassium channel KCNH2 (Homo sapiens, UniProt Q12809); test: Inhibition of hERG (unknown origin); assay type: toxicity
KG-1 = test: cells; conditions: Homo sapiens, KG-1, 72 h
[2] = target: High affinity nerve growth factor receptor (Homo sapiens, UniProt P04629); test: Inhibition of TRKA (unknown origin) by Ambit kinase assay
[3] = Efflux ratio of apparent permeability across basolateral to apical side over apical to basolateral side in dog MDCK-MDR1 cells at 5 uM incubated for 90 mins by LC-MS/MS analysis; assay type: ADME, cell-based, Canis lupus familiaris
Dengue virus = test: Antiviral activity against DENV infected in human Huh-7 cells assessed as reduction in viral growth incubated for 72 hrs by flow cytometry; assay type: functional, organism-based; conditions: Huh-7, 72 h
[4] = target: Proto-oncogene tyrosine-protein kinase receptor Ret (Homo sapiens, UniProt P07949); test: Inhibition of RET (unknown origin) by DiscoverX KINOMEscan assay
[5] = target: [Pyruvate dehydrogenase (acetyl-transferring)] kinase isozyme 1, mitochondrial (Homo sapiens, UniProt Q15118); test: Inhibition of PDK1 (unknown origin) incubated for 30 mins followed by substrate addition measured after 60 mins in presence of ATP by ADP-Glo luminescent assay
PSN1 = assay type: functional, cell-based; conditions: Homo sapiens, PSN1, 72 h
[6] = target: T1, Receptor-interacting serine/threonine-protein kinase 1 (Homo sapiens, UniProt Q13546); test: Inhibition of RIPK1 (unknown origin)
T1 sequence (Q13546 whole entry): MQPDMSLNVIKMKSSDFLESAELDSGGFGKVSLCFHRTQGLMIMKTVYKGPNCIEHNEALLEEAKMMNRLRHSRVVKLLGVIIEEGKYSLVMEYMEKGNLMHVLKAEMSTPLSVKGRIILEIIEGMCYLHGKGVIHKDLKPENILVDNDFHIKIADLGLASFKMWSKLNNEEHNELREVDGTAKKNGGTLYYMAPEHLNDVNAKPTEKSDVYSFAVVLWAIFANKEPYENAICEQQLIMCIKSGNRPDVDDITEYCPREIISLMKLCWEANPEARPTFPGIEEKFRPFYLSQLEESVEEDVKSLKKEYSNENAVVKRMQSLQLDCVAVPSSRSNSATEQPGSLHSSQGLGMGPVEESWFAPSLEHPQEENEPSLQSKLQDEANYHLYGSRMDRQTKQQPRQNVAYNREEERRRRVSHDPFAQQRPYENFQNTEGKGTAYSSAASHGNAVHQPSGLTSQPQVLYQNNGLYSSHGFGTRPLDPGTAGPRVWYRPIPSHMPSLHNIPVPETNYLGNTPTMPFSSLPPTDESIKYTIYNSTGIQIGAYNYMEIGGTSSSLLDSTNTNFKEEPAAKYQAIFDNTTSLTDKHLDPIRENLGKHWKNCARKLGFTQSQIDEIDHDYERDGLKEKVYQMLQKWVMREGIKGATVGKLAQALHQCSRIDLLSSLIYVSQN

[7] = target: Receptor-interacting serine/threonine-protein kinase 3 (Homo sapiens, UniProt Q9Y572); test: Inhibition of RIPK3 (unknown origin)
[8] = target: T1, Receptor-interacting serine/threonine-protein kinase 1; test: Inhibition of human RIPK1 by ADP-Glo assay
MDA-MB-231 = assay type: functional, cell-based; conditions: Homo sapiens, MDA-MB-231, 48 h
[9] = target: T2, Phosphatidylinositol 4,5-bisphosphate 3-kinase catalytic subunit delta isoform (Homo sapiens, UniProt O00329); test: Inhibition of PI3Kdelta (unknown origin)
T2 sequence (O00329 whole entry): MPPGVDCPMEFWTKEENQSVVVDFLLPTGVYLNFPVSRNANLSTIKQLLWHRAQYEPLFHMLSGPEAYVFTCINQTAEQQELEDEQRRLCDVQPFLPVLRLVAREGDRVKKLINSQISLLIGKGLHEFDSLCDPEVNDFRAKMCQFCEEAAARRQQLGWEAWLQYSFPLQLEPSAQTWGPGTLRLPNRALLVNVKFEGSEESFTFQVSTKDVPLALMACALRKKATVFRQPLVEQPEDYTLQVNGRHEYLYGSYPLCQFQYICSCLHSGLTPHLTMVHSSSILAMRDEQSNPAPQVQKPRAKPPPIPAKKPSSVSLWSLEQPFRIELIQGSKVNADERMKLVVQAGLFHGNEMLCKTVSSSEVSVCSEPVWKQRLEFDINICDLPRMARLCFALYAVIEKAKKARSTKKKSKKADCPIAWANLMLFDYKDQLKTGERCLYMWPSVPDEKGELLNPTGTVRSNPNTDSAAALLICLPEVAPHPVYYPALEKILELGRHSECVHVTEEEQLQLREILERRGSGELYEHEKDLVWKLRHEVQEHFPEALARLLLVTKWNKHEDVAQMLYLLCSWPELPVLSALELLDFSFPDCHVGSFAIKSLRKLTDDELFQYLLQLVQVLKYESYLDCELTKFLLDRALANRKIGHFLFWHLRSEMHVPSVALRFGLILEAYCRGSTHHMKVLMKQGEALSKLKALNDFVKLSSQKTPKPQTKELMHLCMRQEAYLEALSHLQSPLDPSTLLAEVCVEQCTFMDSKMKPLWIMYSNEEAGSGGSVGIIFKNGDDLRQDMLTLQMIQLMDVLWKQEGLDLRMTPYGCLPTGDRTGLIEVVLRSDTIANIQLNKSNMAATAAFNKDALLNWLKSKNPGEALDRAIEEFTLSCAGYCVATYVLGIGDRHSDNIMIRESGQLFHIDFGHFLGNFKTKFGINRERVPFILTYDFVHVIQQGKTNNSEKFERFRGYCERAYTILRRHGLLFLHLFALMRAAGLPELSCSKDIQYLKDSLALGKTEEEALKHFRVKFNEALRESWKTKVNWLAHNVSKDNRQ

[10] = target: Phosphatidylinositol 4,5-bisphosphate 3-kinase catalytic subunit alpha isoform (Homo sapiens, UniProt P42336); test: Inhibition of PI3Kalpha (unknown origin)
[11] = target: Phosphatidylinositol 4,5-bisphosphate 3-kinase catalytic subunit gamma isoform (Homo sapiens, UniProt P48736); test: Inhibition of PI3Kgamma (unknown origin)
MCF7 = test: Antiproliferative activity against human MCF7 cells assessed as reduction in cell viability measured after 48 hrs by MTT assay; assay type: functional, cell-based; conditions: MCF7, 48 h
[12] = target: Phosphatidylinositol 4,5-bisphosphate 3-kinase catalytic subunit beta isoform (Homo sapiens, UniProt P42338); test: Inhibition of PI3Kbeta (unknown origin)
Phosphatidylinositol 4,5-bisphosphate 3-kinase catalytic subunit beta isoform, sequence (P42338 whole entry, canonical isoform): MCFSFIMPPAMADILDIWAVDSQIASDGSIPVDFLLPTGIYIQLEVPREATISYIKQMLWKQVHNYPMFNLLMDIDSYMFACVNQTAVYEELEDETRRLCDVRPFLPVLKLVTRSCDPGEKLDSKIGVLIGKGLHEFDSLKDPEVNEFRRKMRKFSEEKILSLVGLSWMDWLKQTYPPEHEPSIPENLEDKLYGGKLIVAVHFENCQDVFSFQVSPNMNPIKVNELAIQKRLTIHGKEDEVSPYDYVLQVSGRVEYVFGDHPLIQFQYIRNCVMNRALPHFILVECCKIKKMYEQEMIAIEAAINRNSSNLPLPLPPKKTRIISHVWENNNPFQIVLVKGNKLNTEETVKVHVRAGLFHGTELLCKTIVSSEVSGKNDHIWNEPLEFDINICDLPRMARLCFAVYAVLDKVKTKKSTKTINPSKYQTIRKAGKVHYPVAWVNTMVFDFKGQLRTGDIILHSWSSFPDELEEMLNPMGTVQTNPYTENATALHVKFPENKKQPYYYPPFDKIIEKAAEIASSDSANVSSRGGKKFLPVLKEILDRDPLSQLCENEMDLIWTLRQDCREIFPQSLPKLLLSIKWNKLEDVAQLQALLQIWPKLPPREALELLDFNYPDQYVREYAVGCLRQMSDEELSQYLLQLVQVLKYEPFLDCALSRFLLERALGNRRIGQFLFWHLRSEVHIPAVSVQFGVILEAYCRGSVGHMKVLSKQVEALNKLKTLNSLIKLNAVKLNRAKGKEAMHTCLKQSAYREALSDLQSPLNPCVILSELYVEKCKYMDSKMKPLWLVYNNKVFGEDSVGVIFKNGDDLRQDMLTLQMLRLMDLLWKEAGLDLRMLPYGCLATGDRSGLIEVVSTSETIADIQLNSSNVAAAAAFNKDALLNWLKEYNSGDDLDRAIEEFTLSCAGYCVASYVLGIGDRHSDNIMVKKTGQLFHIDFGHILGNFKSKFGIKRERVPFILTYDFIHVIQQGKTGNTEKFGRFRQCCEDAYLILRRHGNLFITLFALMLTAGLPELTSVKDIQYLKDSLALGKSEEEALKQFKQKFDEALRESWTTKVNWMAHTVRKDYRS

[Pyruvate dehydrogenase (acetyl-transferring)] kinase isozyme 1, mitochondrial, sequence (Q15118 whole entry): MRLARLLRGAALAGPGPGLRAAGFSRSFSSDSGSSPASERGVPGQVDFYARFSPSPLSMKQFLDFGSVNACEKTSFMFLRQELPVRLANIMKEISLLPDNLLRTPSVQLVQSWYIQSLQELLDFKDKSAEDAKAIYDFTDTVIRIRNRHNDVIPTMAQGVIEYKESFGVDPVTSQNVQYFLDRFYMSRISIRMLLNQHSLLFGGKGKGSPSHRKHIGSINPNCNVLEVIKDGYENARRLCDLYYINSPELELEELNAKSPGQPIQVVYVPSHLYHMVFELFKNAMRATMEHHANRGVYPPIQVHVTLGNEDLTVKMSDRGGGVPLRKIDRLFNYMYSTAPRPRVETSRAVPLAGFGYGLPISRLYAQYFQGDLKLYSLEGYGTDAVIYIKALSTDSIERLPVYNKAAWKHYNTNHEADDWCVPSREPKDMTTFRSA
Voltage-gated inwardly rectifying potassium channel KCNH2, sequence (Q12809 whole entry): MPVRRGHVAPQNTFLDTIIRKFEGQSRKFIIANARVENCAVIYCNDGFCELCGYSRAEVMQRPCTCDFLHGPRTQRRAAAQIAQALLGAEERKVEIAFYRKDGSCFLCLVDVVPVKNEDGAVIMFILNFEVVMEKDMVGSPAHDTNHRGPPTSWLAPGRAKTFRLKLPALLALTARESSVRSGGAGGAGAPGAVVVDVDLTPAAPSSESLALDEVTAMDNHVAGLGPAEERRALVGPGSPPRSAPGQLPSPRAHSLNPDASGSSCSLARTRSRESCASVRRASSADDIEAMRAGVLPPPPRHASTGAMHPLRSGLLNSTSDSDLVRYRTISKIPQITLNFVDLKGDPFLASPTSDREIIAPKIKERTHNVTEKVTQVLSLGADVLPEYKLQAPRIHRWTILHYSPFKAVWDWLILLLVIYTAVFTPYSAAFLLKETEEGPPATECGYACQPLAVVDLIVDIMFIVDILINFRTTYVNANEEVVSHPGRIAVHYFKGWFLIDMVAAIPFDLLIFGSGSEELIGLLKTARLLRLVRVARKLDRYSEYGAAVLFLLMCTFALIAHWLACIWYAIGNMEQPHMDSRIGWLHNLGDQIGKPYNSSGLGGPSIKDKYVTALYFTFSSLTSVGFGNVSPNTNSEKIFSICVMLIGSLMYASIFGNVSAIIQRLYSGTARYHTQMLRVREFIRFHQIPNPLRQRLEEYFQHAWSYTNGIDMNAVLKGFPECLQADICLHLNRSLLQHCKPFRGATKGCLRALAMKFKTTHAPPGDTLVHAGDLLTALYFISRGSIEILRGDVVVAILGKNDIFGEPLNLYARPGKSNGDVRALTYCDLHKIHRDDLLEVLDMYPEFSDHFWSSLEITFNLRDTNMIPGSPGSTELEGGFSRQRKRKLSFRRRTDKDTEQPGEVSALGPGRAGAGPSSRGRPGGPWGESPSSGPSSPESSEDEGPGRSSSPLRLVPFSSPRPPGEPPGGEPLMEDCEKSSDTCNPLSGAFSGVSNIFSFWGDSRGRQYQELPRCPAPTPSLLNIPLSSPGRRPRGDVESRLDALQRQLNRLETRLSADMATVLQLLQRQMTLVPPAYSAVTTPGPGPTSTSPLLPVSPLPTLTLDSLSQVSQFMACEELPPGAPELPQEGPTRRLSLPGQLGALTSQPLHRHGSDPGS
Phosphatidylinositol 4,5-bisphosphate 3-kinase catalytic subunit alpha isoform, sequence (P42336 whole entry, canonical isoform): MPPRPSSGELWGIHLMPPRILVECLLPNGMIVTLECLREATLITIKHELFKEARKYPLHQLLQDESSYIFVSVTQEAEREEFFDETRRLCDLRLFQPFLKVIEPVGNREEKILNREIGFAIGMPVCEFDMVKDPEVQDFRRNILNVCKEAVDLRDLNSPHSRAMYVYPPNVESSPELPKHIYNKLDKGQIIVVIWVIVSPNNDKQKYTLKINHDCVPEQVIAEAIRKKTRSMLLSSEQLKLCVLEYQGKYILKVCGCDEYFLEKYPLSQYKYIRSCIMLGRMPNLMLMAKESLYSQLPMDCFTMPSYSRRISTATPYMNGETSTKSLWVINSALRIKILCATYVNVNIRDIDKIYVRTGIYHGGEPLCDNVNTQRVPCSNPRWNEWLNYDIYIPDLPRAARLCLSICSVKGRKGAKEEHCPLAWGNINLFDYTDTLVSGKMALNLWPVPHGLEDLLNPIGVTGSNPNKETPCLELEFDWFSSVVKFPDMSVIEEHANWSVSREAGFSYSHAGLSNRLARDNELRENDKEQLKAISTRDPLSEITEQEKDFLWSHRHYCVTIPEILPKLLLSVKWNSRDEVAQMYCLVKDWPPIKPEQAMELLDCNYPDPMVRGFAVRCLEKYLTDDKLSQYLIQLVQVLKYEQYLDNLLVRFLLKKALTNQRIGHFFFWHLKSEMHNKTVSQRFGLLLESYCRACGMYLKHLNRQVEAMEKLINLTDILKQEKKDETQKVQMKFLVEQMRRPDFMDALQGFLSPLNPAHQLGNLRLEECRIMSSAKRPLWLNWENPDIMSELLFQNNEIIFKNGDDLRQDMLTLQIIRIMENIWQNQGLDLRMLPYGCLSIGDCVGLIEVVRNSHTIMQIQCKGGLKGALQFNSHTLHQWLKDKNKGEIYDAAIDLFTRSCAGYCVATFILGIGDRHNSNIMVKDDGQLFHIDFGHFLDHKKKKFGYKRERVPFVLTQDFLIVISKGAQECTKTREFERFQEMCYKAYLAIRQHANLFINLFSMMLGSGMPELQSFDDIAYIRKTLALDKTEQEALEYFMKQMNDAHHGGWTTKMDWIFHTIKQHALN
Phosphatidylinositol 4,5-bisphosphate 3-kinase catalytic subunit gamma isoform, sequence (P48736 whole entry, canonical isoform): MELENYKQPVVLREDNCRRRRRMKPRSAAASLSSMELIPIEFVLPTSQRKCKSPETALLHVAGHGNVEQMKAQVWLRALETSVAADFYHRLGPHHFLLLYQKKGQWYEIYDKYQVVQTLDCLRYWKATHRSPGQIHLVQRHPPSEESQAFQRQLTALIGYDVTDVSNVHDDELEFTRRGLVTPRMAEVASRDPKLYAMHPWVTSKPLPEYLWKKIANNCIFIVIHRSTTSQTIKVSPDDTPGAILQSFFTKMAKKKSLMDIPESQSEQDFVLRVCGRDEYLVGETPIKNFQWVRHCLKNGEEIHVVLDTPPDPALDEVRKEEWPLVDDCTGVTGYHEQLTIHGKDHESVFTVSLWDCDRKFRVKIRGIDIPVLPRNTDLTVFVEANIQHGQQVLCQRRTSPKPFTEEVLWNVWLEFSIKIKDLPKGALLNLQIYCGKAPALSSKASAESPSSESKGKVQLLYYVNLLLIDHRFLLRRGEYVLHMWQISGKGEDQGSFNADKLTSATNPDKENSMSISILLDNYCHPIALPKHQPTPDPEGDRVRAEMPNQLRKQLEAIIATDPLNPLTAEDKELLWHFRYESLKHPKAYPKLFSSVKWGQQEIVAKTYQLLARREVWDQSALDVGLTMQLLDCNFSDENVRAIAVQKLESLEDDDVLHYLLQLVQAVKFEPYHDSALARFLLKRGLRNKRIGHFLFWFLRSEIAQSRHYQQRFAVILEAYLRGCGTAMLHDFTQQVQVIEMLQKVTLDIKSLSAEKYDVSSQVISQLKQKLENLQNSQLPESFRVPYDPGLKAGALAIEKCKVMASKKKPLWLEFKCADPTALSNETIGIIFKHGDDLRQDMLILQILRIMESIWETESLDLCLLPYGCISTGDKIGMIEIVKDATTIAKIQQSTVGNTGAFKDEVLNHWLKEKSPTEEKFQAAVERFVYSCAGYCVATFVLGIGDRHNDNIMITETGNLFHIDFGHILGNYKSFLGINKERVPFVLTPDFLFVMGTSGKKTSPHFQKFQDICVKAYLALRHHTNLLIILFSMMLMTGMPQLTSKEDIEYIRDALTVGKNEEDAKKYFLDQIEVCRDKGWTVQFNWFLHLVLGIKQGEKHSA

SMILES: NC(=O)c1cc(Cl)c2c(Cl)c(C3CC3)n(C3CCCNC3)c2n1 (centres undefined)
- IC50 [1]: 1000 nM
- IC50 (KG-1): < 100 nM

SMILES: NC(=O)c1cc(Cl)c2c(Cl)c(I)n(C3CCCNC3)c2n1 (centres undefined)
- IC50 [1]: 1000 nM
- IC50 (KG-1): < 100 nM

SMILES: NC(=O)c1cc(Cl)c2c(Cl)c(C#CC3CC3)n(C3CCCNC3)c2n1 (centres undefined)
- IC50 (KG-1): < 100 nM

SMILES: Cc1cc(-n2cc(C(=O)N3CCOCC3)c3ccc(N[C@@H](C)c4ccc(F)cn4)nc32)[nH]n1
- IC50 [2]: 2.5 nM
- efflux ratio at 1.5 h, 5 µM [3]: 18

SMILES: COc1ccc(-c2cnc3[nH]cc(C#Cc4cccnc4)c3c2)cc1OC
- EC50 (Dengue virus): 720 nM

SMILES: CN1CCN(Cc2ccc(NC(=O)c3cccc(/N=N/c4cnc5[nH]ccc5c4)c3)cc2C(F)(F)F)CC1
- IC50 [4]: 50 nM

SMILES: Cn1cc(-c2nc(N)nnc2-c2c[nH]c3ccc(F)cc23)c2cc(Br)cnc21
- IC50 [5]: 30 nM
- IC50 (PSN1): 3.3 µM

SMILES: Oc1ccc(-c2cnc3[nH]ccc3c2)cc1
- IC50 [6]: 1470 nM

SMILES: Cn1cc(-c2nnc(N)nc2-c2c[nH]c3ccc(Br)cc23)c2cc(Br)cnc21
- IC50 [5]: 30 nM
- IC50 (PSN1): 3.3 µM

SMILES: NC(=O)c1ccc(-c2cc3cccnc3[nH]2)cc1
- IC50 [6]: 90 nM

SMILES: O=C(c1ccc(-c2cc3cccnc3[nH]2)cc1)N1CCOCC1
- IC50 [7]: > 20 µM
- IC50 [8]: 80 nM

SMILES: Cn1cc(-c2nc(N)nnc2-c2c[nH]c3ccc(Br)cc23)c2cc(Br)cnc21
- IC50 [5]: 30 nM
- IC50 (PSN1): 3.3 µM

SMILES: Cn1cc(-c2nnc(N)nc2-c2c[nH]c3ccc(F)cc23)c2cc(Br)cnc21
- IC50 [5]: 30 nM
- IC50 (PSN1): 3.3 µM

SMILES: O=S(=O)(Nc1cc(-c2cnc3[nH]cc(-c4ccc(N5CCOCC5)nc4)c3c2)cnc1Cl)c1ccccc1
- IC50 (MDA-MB-231): 450 nM
- IC50 [9]: 0.3 nM
- IC50 [10]: 0.3 nM
- IC50 [11]: 0.3 nM
- IC50 (MCF7): 1.19 µM
- IC50 [12]: 0.3 nM

SMILES: Cc1cc(-n2cc(C(=O)N3CCO[C@@H](C)C3)c3ccc(OC(C)c4ccc(F)cn4)nc32)n[nH]1 (some centres undefined)
- efflux ratio at 1.5 h, 5 µM [3]: 1

SMILES: O=S(=O)(Nc1cc(-c2cnc3[nH]cc(-c4cnn(CCN5CCOCC5)c4)c3c2)cnc1Cl)c1ccccc1
- IC50 (MDA-MB-231): 1200 nM
- IC50 [9]: 0.3 nM
- IC50 [10]: 0.3 nM
- IC50 [11]: 0.3 nM
- IC50 (MCF7): 6 µM
- IC50 [12]: 0.3 nM
